Key:
[1] = test system: rats with the hind limb inflammed; experiment: Analgesic activity, rats with inflamed hind limb (absence of squeal on flexion of inflamed ankle joint); type: in vivo, rat; settings: for ED50: Rattus norvegicus, read-out: oral ED50 (median analgesic dose); for ED50 / side effects at the median analgesic dose: oral; for side effects at the median analgesic dose: at ED50 dosage (AMR-94 160 mg./kg.; AMR-93 325 mg./kg.)
Protocol: the end-point for analgesic testing in rats with the hind limb inflammed is based on the absence of a squeal in response to flexion of the inflammed ankle joint (Method described by S. Margolin, Proceedings of an International Symposium on Non-Steroidal Anti-Inflammatory Drugs, Excerpta Medica International Congress, Series No. 82, 1964).
With AMR-93, the median effective dose was 325 ± 45 mg./kg.

[2] = test system: edema (swelling), experimental inflammation in the hind limb of rats; experiment: Anti-inflammatory activity, reduction of edema of experimentally inflamed hind limb; type: in vivo, albino rats; settings: for anti-inflammatory effect: oral dosage of 600 mg./kg.; for ED50: Rattus norvegicus, read-out: oral median effective dose (ED50), anti-inflammatory
Protocol: anti-inflammatory activity was assayed by the method described by Margolin (ibid.) utilizing albino rats. The anti-inflammatory bio-assay basis is the ability to reduce the edema (swelling) when an experimental inflammation is induced in the hind limb of the rats.

[3] = test system: experimentally-induced fever in albino rabbits; experiment: Anti-pyretic activity, experimentally-induced fever in rabbits; type: in vivo; settings: for anti-pyretic activity: induced fever
Protocol: anti-pyretic activity testing is based upon the ability of the drug to suppress the experimentally-induced fever in albino rabbits (F. M. Berger, et al. J. Pharmacology and Experimental Therapeutics, Vol. 127, No. 1, 1959 based upon the original presentations of G. Brownlee Quart. J. Pharm; Vol. 10, Pg. 609, 1937 and Quart. J. Pharm., Vol. 12, Pg. 45, 1939). The drugs under test are administered intraperitoneally and the response is compared to that of saline controls. The average change in temperature over a period of three hours following the administration of aminopyrine (100 mg./kg. i.p.), AMR-69 (100 mg./kg. i.p.) and the saline (isotonic) controls were as follows:
The effective anti-pyretic activity of AMR-69 in rabbits has been noted previously.

[4] = test system: mucous membranes of the nasopharynx and lungs; experiment: Protection of mucous membranes of the nasopharynx and lungs, comparison with related pyridones; type: in vivo; settings: for protection of mucous membranes of the nasopharynx and lungs: comparison with related pyridones; for side effects / deleterious effects on the respiratory system: mucous membrane protection tests
[5] = General comparison of side effects and therapeutic activity in the several tests; settings: in vivo
serum uric acid = experiment: Reduction in serum uric acid levels, rats; type: in vivo, albino male and female rats; settings: albino male and female rats, similar tests
Protocol: normal adult albino male and female rats were given repeated graded doses of AMR-69 and the effect upon serum uric acid levels was determined. There were 10 males and 10 females in each group. The control group received the placebo and the drug was administered orally by admixture to the food. The serum uric acid determination was one of a series performed utilizing the Autotechnicon technique (Lofland et al., 1965 Technicon Symposium) using the Standard SMA-12 procedure (based upon procedure of Bittner et al., AM. J. Clin. Path. 40:423, 1963).
The lowering in serum uric acid levels shown by AMR-69 in tests on rats and on dogs has been noted.

[6] = test system: experimentally-induced fever in albino rabbits; experiment: Anti-pyretic activity, experimentally-induced fever in rabbits; type: in vivo; settings: animals without experimentally induced fever as well
Acute toxicity in mice = type: in vivo; settings: mouse, in vivo, ip; fasted albino mice, intraperitoneal; read-out: Intraperitoneally LD50
Protocol: in fasted albino mice (Flanders) the LD50 for AMR-69 and aminopyrine was determined by standard procedures with the following results: […]

| SMILES | ED50 [1] | analgesic activity relative to AMR-69 ([1]; oral route) | anti-inflammatory effect [2] | anti-pyretic activity ([3]; rabbits) | protection of mucous membranes of the nasopharynx and lungs [4] | side effects / deleterious effects on the respiratory system [4] | deleterious side effects in the several tests [5] | therapeutic activity in the several tests [5] | analgesic effect at a dosage low enough to obviate Central Nervous System depression [1] | side effects at the median analgesic dose [1] | ED50 ([2]; oral) | side-effects at anti-inflammatory ED50 ([2]; oral) | convulsions observed, test animals ([3]; rabbits) | change in serum uric acid level (serum uric acid) | effect on normal body temperature [6] | average change in temperature over a period of three hours ([3]; 100 mg./kg. i.p., fevered albino rabbits, saline controls +0.9 ±0.17°C) | reduction in fever as compared to the saline control ([3]; 100 mg./kg. i.p., aminopyrine t = 6.6, p < 0.01, AMR-69 t = 6.3, p < 0.01) | LD50 (Acute toxicity in mice) |
| --- | --- | --- | --- | --- | --- | --- | --- | --- | --- | --- | --- | --- | --- | --- | --- | --- | --- | --- |
| Cc1cccn(-c2ccccc2)c1=O [AMR-77, 3-methyl-1-phenyl-2-(1H)-pyridone] | 515 ± 45 mg/kg | approximately one-third to one-fourth the activity of AMR-69 | No anti-inflammatory effect was observed | No significant anti-pyretic activity was observed | no evidence of protective action | No acute deleterious effects on the respiratory system were observed | not observed | neither was significant therapeutic activity demonstrated |  |  |  |  |  |  |  |  |  |  |
| CCc1ccc(=O)n(-c2ccccc2)c1 [AMR-94, 5-ethyl-1-phenyl-2-(1H)-pyridone] | 160 ± 32 mg/kg |  |  | slight reduction in induced fever which was not considered statistically significant | did not show a protective effect | undesirable side effects were evident | accompanied by deleterious side effects |  | could not be demonstrated | marked sedation, Central Nervous System depression, loss of respiratory efficiency, ataxia, and uncoordinated gait | 225 ± 52 mg/kg | accompanied by undesired side-effects | two of the four | did not show a significant change in serum uric acid level | marked lowering of normal body temperature |  |  |  |
| Cc1c(N(C)C)c(=O)n(-c2ccccc2)n1C [Aminopyrine, aminopyrine, reference compound] | 150 ± 26 mg/kg |  |  |  |  |  |  |  |  |  | 185 ± 31 mg/kg |  |  |  |  | -0.6 ±0.16 °C | highly significant | 175 ± 9 mg/kg |
| O=c1ccccn1-c1ccccc1 [AMR-93, 1-phenyl-2-(1H)-pyridone] | 325 ± 45 mg/kg |  | No anti-inflammatory effect was observed | No significant anti-pyretic activity was observed | did not show a protective effect | undesirable side effects were evident | accompanied by deleterious side effects |  |  | acute bleeding from the nose and an autopsy revealed multiple hemorrhages and edema of the lungs |  |  |  | did not show a significant change in serum uric acid level |  |  |  |  |

From patent US3974281A, “5-Methyl-1-phenyl-2-(1H)-pyridone compositions and methods of use” (priority 1974, dated 1976)
